Each block holds one molecule with its values, some of them ahead of it.
Experiments:
MCF7 cells = assay: Breast cancer cell proliferation assay (MCF-7), Cell Titer-Glo; format: cell-based; conditions: Homo sapiens, 120 h, 5 days of compound exposure
Description: Breast Cancer Cell Proliferation Assay (MCF-7)
MCF7 cells were expanded and maintained in DMEM (Hyclone SH30272.01, Phenol red free) with NEAA (Gibco11140-050), Na-pyruvate (Gibco 11360-070) and Re-stripped Charcoal stripped FBS (Gemini 100-119)). The cells were adjusted to a concentration of 3,000 cells per mL and incubated (37° C., 5% CO2). The following day a 10 point, serial dilution of compounds was added to the cells at a final concentration ranging from 10 μM to 0.000005 μM for test compounds (17β-estradiol was used as a control). Additional cells were plated in 30 wells to serve as the day 1 (pretreatment) comparison. After 5 days of compound exposure, Cell Titer-Glo reagent was added to the cells and the relative luminescence units (RLUs) of each well was determined Cell Titer-Glo was also added to 32 μL of medium without cells to obtain a background value. The plates were allowed to incubate at room temperature for 10 minutes to stabilize luminescent signal and the luminescence signal was recorded with EnSpire. The relative increase in cell number of each sample is determined as follows: (RLU sample-RLU background/RLU estrogen only treated cells-RLU background)×100=[…].

[1] = target: T1, ESR1 protein (estrogen receptor alpha) (Homo sapiens, UniProt P03372); assay: ER degradation determination by Western blot in MCF-7 cells; format: cell-based; conditions: 10 μM, 18-24 hours
T1 construct: After incubating cells with the indicated compounds for 18-24 hours, cell lysates were prepared; endogenous in cells; host or cells: MCF-7
T1 sequence (P03372 1-595): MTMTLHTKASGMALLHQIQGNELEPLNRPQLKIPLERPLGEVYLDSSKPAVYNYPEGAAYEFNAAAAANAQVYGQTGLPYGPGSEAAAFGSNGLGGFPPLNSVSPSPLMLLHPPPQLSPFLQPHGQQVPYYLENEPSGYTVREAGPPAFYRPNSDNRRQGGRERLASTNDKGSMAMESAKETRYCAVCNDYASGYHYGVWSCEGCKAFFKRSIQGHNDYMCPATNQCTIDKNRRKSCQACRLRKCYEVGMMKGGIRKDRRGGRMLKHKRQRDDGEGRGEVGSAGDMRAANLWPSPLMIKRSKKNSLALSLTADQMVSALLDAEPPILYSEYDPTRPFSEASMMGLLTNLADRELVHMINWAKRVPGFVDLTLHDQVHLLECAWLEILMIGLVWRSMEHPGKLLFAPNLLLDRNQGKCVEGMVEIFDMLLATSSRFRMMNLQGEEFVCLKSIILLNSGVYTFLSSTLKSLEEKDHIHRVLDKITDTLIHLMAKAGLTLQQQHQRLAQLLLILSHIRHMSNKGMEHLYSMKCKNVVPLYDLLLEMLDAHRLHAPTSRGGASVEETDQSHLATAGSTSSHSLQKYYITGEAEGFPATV
Description: ER Degradation Determination by Western Blot
MCF-7 cells were plated at 0.3 million cells/mL (3 mL/well) in 6-well plates in experiment media and incubated at 37° C., 5% CO2 for 48 hours. A 10× solution of compounds were made in DMSO and added the solution to the cells to achieve a final concentration of 10 μM. A DMSO control was included to enable a determination of the relative efficacy of test compounds. […] After incubating cells with the indicated compounds for 18-24 hours, cell lysates were prepared (2× Cell lysis buffer: 100 mM Tris, pH 8, 300 mM NaCl, 2% NP40, 1% Na deoxycholate, 0.04% SDS and 2 mM EDTA) and mixed thoroughly and incubated on ice. The protein concentration was quantified using BCA kit. […] The gel was then transferred onto a nitrocellulose membrane. […] GAPDH protein was used as an internal control.

estrogen receptor = target: T2, estrogen receptor (Homo sapiens, UniProt P03372); conditions: 500 mg monthly dose; cited from earlier work
T2 sequence (P03372 1-595): T1 sequence (P03372 1-595)

ERα (ESR1 protein) = target: T3, ERα (ESR1 protein) (Homo sapiens, UniProt P03372); assay: ERα EC50 determination (Western blot band density, MCF-7 cells); format: cell-based; conditions: 18-24 hours, ERα degradation
T3 construct: After incubating cells with the indicated compounds for 18-24 hours, cell lysates were prepared; endogenous in cells; host or cells: MCF-7
T3 sequence (P03372 1-595): T1 sequence (P03372 1-595)
Source text: A DMSO control was included to enable a determination of the relative efficacy of test compounds. […] The protein concentration was quantified using BCA kit.

[2] = Pharmacokinetic determination in rats; format: in vivo, female SD rats; conditions: rat
Description: (§1) Pharmacokinetic Determination
(§2) Grouping female CD mice weighing 20-30 g or female SD rats weighing 200-300 g randomly to two groups; one group was administered with test compound at a dose of 3.0 mg/kg by intravenous injection, the other group was administered with test compound at a dose of 10.0 mg/kg orally. The formulation for IV groups were DMSO/PEG400/150 mM glycine (pH 9) (5/10/85) and the formulation for PO groups were PEG400/PVP/Tween 80/0.5% CMC in water (9/0.5/0.5/90). After administering, blood samples of intravenous injection group were collected at time points of predose, 0.0833, 0.25, 0.5, 1, 2, 4, 8, 12 and 24 h; blood samples of oral group were collected at time points of predose, 0.25, 0.5, 1, 2, 4, 8, 12, and 24 h. Standard curve was plotted based on concentrations of the samples in a suitable range, the concentrations of test compounds in plasma samples were determined by using LC-MS/MS. Pharmacokinetic parameters were calculated according to drug concentration-time curve using a noncompartmental method by WinNonLin (Phoenix™, version 6.1) or other similar software.

[3] = Pharmacokinetic determination in mice; format: in vivo, female CD mice; conditions: mouse
Description: as §1, §2

[4] = female, SD, plasma, IV, 3.0 mg/kg
[5] = female, SD, plasma, PO, 10.0 mg/kg
[6] = female, CD, plasma, IV, 3.0 mg/kg
[7] = female, CD, plasma, PO, 10.0 mg/kg

IC50 (MCF7 cells): ≤ 25 nM
ERα % degradation [1]: A (ERα % degradation ≥ 80%)
Structure (SMILES): C[C@]12CC[C@@H]3c4ccc(O)cc4C[C@@H](CCCCCCCCC[S+]([O-])CCCC(F)(F)C(F)(F)F)[C@H]3[C@@H]1CC[C@@H]2O (stereo partly drawn) [fulvestrant]
turnover of the receptor in patient samples (estrogen receptor): less than 50%

IC50 (MCF7 cells): ≤ 25 nM
ERα % degradation [1]: A (ERα % degradation ≥ 80%)
Structure (SMILES): C[C@@H]1Cc2c([nH]c3ccccc23)[C@@H](c2c(F)cc(/C=C/C(=O)O)cc2F)N1CC(C)(C)F [AZD9496]

IC50 (MCF7 cells): ≤ 25 nM
ERα % degradation [1]: B (ERα % degradation < 80%)
EC50 (ERα (ESR1 protein)): < 25 nM
AUC(0-inf) [2, 4]: 6.3 µM·h
clearance [2, 4]: 19 mL/min/kg
half-life [2, 4]: 3.9 h
Vd ([2]; female, SD, plasma, IV, 3.0 mg/kg, read-out: Vdss): 2.9 L/kg
AUC(0-inf) [2, 5]: 11.1 µM·h
Cmax [2, 5]: 5.7 µM
Tmax [2, 5]: 0.5 h
half-life [2, 5]: 8 h
F ([2]; PO, 10.0 mg/kg): 53%
AUC(0-inf) [3, 6]: 2.4 µM·h
clearance [3, 6]: 49.6 mL/min/kg
half-life [3, 6]: 3.9 h
Vd ([3]; female, CD, plasma, IV, 3.0 mg/kg, read-out: Vdss): 6 L/kg
AUC(0-inf) [3, 7]: 7 µM·h
Cmax [3, 7]: 2.5 µM
Tmax [3, 7]: 0.25 h
half-life [3, 7]: 3.4 h
F ([3]; PO, 10.0 mg/kg): 88%
Structure (SMILES): CC/C(=C(\c1ccc(O)cc1)c1ccc(/C=C/C(=O)O)cc1)c1ccc(F)cc1Cl [Example 1, (E)-3-(4-((E)-2-(2-chloro-4-fluorophenyl)-1-(4-hydroxyphenyl)but-1-en-1-yl)phenyl)acrylic acid]

IC50 (MCF7 cells): ≤ 25 nM
Structure (SMILES): CC/C(=C(/c1ccc(/C=C/C(=O)O)cc1)c1ccc2[nH]ncc2c1)c1ccc(F)cc1Cl [ARN810]
